Assay results as given in US20250326723A1, “Development of an Enzyme-Inhibitor Reaction Using Cellular Retinoic Acid Binding Protein II for One-Pot Megamolecule Assembly” (NORTHWESTERN UNIVERSITY, priority 2021, published 2025).

Assays:
[1] = target: T1, CrabTag protein domain (CRABP2) (Homo sapiens, UniProt P29373); experiment: Quantification of reaction kinetics for CRABP2 (CrabTag) covalent modification, fluorescent SDS-PAGE; assay type: biochemical
T1 construct: made in house; host or cells: E. coli T7 SHuffle Express
T1 sequence (P29373 with tags, fused parts or gaps): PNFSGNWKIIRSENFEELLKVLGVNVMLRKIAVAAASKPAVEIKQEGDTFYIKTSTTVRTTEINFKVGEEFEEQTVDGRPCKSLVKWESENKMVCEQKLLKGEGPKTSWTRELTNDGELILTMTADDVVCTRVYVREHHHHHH
Procedure: The present disclosure provides a method for synthesizing linker 11, which includes a fluorophore to characterize the kinetics for reaction of the covalent inhibitor and CrabTag, as shown in FIG. 10A. The inventors have run parallel reactions that varies the concentration of the linker (2, 5, 10, 20, 40, 65, and 100 μM) at a constant concentration of CrabTag (1 μM) and stops the reactions using Laemmli reducing buffer at times ranging from 0 to 120 seconds, as shown in FIG. 10B. […] The inventors have separated the reaction products with SDS-PAGE and quantitated the mean fluorescence intensity of protein bands that corresponded to the adduct with ImageJ. […]
The inventors synthesized linker 11, which included a fluorophore to characterize the kinetics for reaction of the covalent inhibitor and CrabTag as shown in FIG. 10A The inventors ran parallel reactions that varied the concentration of the linker (2, 5, 10, 20, 40, 65, and 100 μM) at a constant concentration of CrabTag (1 μM) and stopped the reactions using Laemmli reducing buffer at times ranging from 0 to 120 seconds as shown in FIG. 10B. […] The inventors separated the reaction products with SDS-PAGE and quantitated the mean fluorescence intensity of protein bands that corresponded to the adduct with ImageJ. […]

[2] = target: T2, CRABP2 (Homo sapiens, UniProt P29373); experiment: X-ray crystal structure of the CRABP2-10 covalent complex; assay type: binding; settings: 1.8 Å structure
T2 construct: His6 (N); made in house; host or cells: E. coli T7 SHuffle Express
T2 sequence (P29373 with tags, fused parts or gaps): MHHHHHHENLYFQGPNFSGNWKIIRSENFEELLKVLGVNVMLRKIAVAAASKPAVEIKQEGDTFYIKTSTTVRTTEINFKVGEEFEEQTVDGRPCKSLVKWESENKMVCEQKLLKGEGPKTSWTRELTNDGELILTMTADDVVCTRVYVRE
Procedure: CRABP2 protein (1000 nmol, 100 μM) was reacted with inhibitor 10 (500 μM, 5 equivalents) in PBS for about 1-50 hours, about 6-20 hours, about 10-18 hours, about 12-16 hours, or about 16 hours. The protein-inhibitor adduct was then purified using SEC and the fractions containing the adduct were pooled, dialyzed, and concentrated to 12 mg/mL (1.275 mL total) using a Centrifugal Filter Unit. […]
Data Processing, Structure Determination and Model Refinement. […] Diffraction data were measured at the Life Sciences Collaborative Access beamlines at Sector 21 of the Advanced Photon Source at Argonne National Laboratory, indexed, integrated and scaled with HKL2000.^4 All subsequent work was conducted using the CCP4 suite of programs.^5 The space group and unit cell parameters were confirmed with Pointless.^6 The structure was determined by molecular replacement with PhaserMR, using a single monomer of Human Cellular Retinoic Acid Binding Protein II (CRABPII) (PDB: 6HKR) with ligands and water molecules removed as the initial phasing model. […]

[3] = target: T1, CrabTag protein domain (CRABP2); experiment: Stability of the covalent CrabTag-linker adduct over two weeks, fluorescent SDS-PAGE; assay type: physicochemical
[4] = target: T3, CrabTag (CRABP2) (Homo sapiens, UniProt P29373); experiment: Intact protein ESI-MS of CrabTag-inhibitor complexes; assay type: binding; settings: CrabTag 1 μM, inhibitor 5 μM, 5 minutes
T3 construct: made in house; host or cells: E. coli T7 SHuffle Express
T3 sequence (P29373 2-138): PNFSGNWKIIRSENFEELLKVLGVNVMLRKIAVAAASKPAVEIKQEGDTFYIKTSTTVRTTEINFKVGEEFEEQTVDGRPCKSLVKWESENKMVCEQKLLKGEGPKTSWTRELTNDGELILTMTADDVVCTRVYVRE
Procedure: FIG. 3 illustrates ESI-MS deconvoluted spectra with expected and observed molecular weights for CrabTag with a N-terminal Histag. Top: Purified CrabTag protein with the N-terminal histag and TEV protease recognition sequence (R, Black). Bottom: Adduct from reaction of R (0.1 nmol, 1 μM) with an inhibitor of the disclosure having a structure according to Formula 10 (5 eq., 5 μM) (Red). The reaction occurred in 100 μL of 1×PBS for 5 minutes before being stopped by addition of formic acid in preparation for ESI-MS.
FIG. 4 illustrates intact protein ESI-MS for CrabTag-inhibitor complexes. Reactions of C-terminal Histag R (1 μM, 1 equivalent) with either an inhibitor of the disclosure having a structure according to Formula 10 (5 μM, 5 equivalents) or an inhibitor of the disclosure having a structure according to Formula 11 (5 μM, 5 equivalents) occurred for 5 minutes before being stopped with formic acid.
Megamolecules were prepared for LC-MS analysis and evaluation using ESI-MS. Reaction time points were taken by quenching the sample with 0.1% formic acid. The preparation involved the desalting and dilution of the multi-protein assembly to 1 μM in nuclease free water. […] Spectra data were analyzed with Agilent MassHunter Qualitative Analysis software to reveal m/z data. […]

[5] = test system: fusion protein containing SnapTag and cutinase domains (CS); experiment: Cross-reactivity of SnapTag and cutinase protein domains with the fluorescent CrabTag inhibitor, SDS-PAGE; assay type: biochemical; settings: CS 10 μM, linker 1 equiv., 25° C. in PBS; CrabTag protein added next day
Source text: FIG. 18A illustrates orthogonality of enzyme-inhibitor pairs in the megamolecule assembly toolbox. A Coomassie stain with brightfield view of SDS-PAGE. Lane 1: CRABP2 (R) protein domain (MW, −16 kDa). Lane 2: Reaction of CRABP2 with fluorescent linker 11. Lane 3: Cutinase-SnapTag (CS) fusion protein (MW, −45 kDa). Lane 4: CS with the CrabTag fluorescent inhibitor. Lane 5: CS with the di-cutinase PEG11 linker to yield a di-CS megamolecule (MW, −90 kDa). Lane 6: CS with the di-SnapTag PEG11 linker to yield a di-CS megamolecule (MW, −90 kDa). Lanes 7-8: CS was first mixed with the CrabTag fluorescent inhibitor for two hours. Afterwards, the di-cutinase PEG11 or the di-SnapTag PEG11 linker was added, forming the di-CS megamolecule (MW, −90 kDa). The next day, the R protein was added to form the fluorescent band shown in the fluorescent SDS-PAGE. Lanes 9-10: R was first mixed with either the di-cutinase PEG11 or the di-SnapTag PEG11 linker for two hours, followed by the addition of the CS fusion protein to form the di-CS megamolecule (MW, −90 kDa). The following day, the fluorescent CrabTag linker was added to form the fluorescent band shown in the fluorescent SDS-PAGE. […]
The orthogonality of the CrabTag enzyme-inhibitor system was examined against our existing two chemistries, cutinase and SnapTag. […] All reactions were imaged by SDS-PAGE using both fluorescence and Coomassie stain.

| SMILES | effective rate constant of the inhibition reaction ([1]; CrabTag inhibition reaction) | residue covalently modified in crystal structure [2] | enzyme-inhibitor complex stable (bound) ([3]; room temperature, over two weeks) [%] | adduct stoichiometry by intact mass spectrometry [4] | second order rate constant for the covalent modification reaction, keff ([1]; CrabTag 1 μM, linker 2-100 μM, times 0 to 120 seconds, ratio of ki and KI) | reactivity of the CrabTag linker after incubation with CS fusion protein [5] | protein domains retaining covalent occupancy of the linker (normalized covalent occupancy) ([3]; 1 μM in PBS, 25° C. (room temperature), after two weeks) |
| --- | --- | --- | --- | --- | --- | --- | --- |
| CC1(C)CCN(C(=O)CCC(=O)O)c2ccc(C#Cc3ccc(OS(=O)(=O)F)cc3)cc21 [inhibitor 10, 4-(6-((4-((fluorosulfonyl)oxy)phenyl)ethynyl)-4,4-dimethyl-3,4-dihydroquinolin-1(2H)-yl)-4-oxobutanoic acid] | approximately 3,600 M^−1s^−1 | selectively modifies Tyr135 | > 95 | monomeric adducts with only one modification |  |  |  |
| CC1(C)CCN(C(=O)CCC(=O)NCCOCCOCCOCCOCCOCCOCCOCCOCCOCCOCCOCCNC(=O)CCCCCNC(=O)c2ccc3c(c2)C(=O)OC32c3ccc(O)cc3Oc3cc(O)ccc32)c2ccc(C#Cc3ccc(OS(=O)(=O)F)cc3)cc21 [linker 11, Bi-EG(11)-(CrabTag Ligand, Fluorescein)] |  |  |  | monomeric adducts with only one modification | (3.6±0.5)×10^3 M^−1s^−1 | maintained selective reactivity with the CrabTag enzyme | over 95% |
